Results as given in ChEMBL document CHEMBL1201862, “PubChem BioAssay data set” (2004).
Several values for one entry are separate records, joined by “and”; a condition that tells them apart may be missing. Equal entries are not always repeated.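 Five concentrations, 48 hours, 96-well plates. GI50 marks 50% less growth.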 Activity calls are given as the source filed them. No stated cut-off is given here; in the data, active = GI50 up to about 1.1 µM and inactive = higher.

Key:
Assay in all cases: inhibition of tumour cell growth, NCI panel, 48 h
786-0 = system: 786-0
A498 = system: A498
A549 = system: A549
ACHN = system: ACHN
BT-549 = system: BT-549
CAKI-1 = system: CAKI-1
COLO 205 = system: COLO 205
DU-145 = system: DU-145
EKVX = system: EKVX
HCT-116 = system: HCT-116
HCT-15 = system: HCT-15
HL-60 = system: HL-60
HOP-62 = system: HOP-62
HOP-92 = system: HOP-92
HT-29 = system: HT-29
Hs-578T = system: Hs-578T
IGROV-1 = system: IGROV-1
K562 = system: K562
KM12 = system: KM12
LOX IMVI = system: LOX IMVI
M14 = system: M14
MCF7 = system: MCF7
MDA-MB-231 = system: MDA-MB-231
MDA-MB-435 = system: MDA-MB-435
MDA-N = system: MDA-N
MOLT-4 = system: MOLT-4
Malme-3M = system: Malme-3M
NCI-H226 = system: NCI-H226
NCI-H23 = system: NCI-H23
NCI-H460 = system: NCI-H460
NCI-H522 = system: NCI-H522
NCI/ADR-RES = system: NCI/ADR-RES
OVCAR-3 = system: OVCAR-3
OVCAR-4 = system: OVCAR-4
OVCAR-5 = system: OVCAR-5
OVCAR-8 = system: OVCAR-8
PC-3 = system: PC-3
RPMI-8226 = system: RPMI-8226
RXF 393 = system: RXF 393
SF-268 = system: SF-268
SF-295 = system: SF-295
SF-539 = system: SF-539
SK-MEL-28 = system: SK-MEL-28
SK-MEL-2 = system: SK-MEL-2
SK-MEL-5 = system: SK-MEL-5
SK-OV-3 = system: SK-OV-3
SN12C = system: SN12C
SNB-19 = system: SNB-19
SNB-75 = system: SNB-75
SR = system: SR
SW-620 = system: SW-620
T47D = system: T47D
TK-10 = system: TK-10
U-251 = system: U-251
UACC-257 = system: UACC-257
UACC-62 = system: UACC-62
UO-31 = system: UO-31
CCRF-CEM = system: CCRF-CEM
HCC 2998 = system: HCC 2998

Measured: GI50

C1=Cc2ccccc2C1.C=C(C)c1ccccc1.[N-]=[N+]=Nc1ccccc1
inactive: 786-0 > 100 µM | A498 > 100 µM | A549 > 100 µM | ACHN > 100 µM | BT-549 > 100 µM | CAKI-1 > 100 µM | COLO 205 > 100 µM | DU-145 > 100 µM | EKVX 38.5 µM | HCT-116 48.3 µM | HL-60 62.4 µM | HOP-62 > 100 µM | HOP-92 47.1 µM | HT-29 42.7 µM | Hs-578T 39.1 µM | IGROV-1 > 100 µM | K562 46.9 µM | KM12 50.5 µM | LOX IMVI > 100 µM | M14 > 100 µM | MCF7 31.3 µM | MDA-MB-231 > 100 µM | MDA-MB-435 70.6 µM | MDA-N 72.3 µM | MOLT-4 96.2 µM | Malme-3M > 100 µM | NCI-H226 52.1 µM | NCI-H23 > 100 µM | NCI-H460 90.4 µM | NCI-H522 34.3 µM | NCI/ADR-RES > 100 µM | OVCAR-3 > 100 µM | OVCAR-4 > 100 µM | OVCAR-5 > 100 µM | OVCAR-8 > 100 µM | PC-3 > 100 µM | RPMI-8226 80 µM | RXF 393 > 100 µM | SF-268 > 100 µM | SF-295 > 100 µM | SF-539 > 100 µM | SK-MEL-28 > 100 µM | SK-MEL-2 > 100 µM | SK-MEL-5 > 100 µM | SK-OV-3 > 100 µM | SN12C > 100 µM | SNB-19 > 100 µM | SNB-75 49 µM | SR > 100 µM | SW-620 67.3 µM | T47D 68.5 µM | TK-10 > 100 µM | U-251 71.3 µM | UACC-257 41 µM | UACC-62 45.8 µM | UO-31 > 100 µM
> 100 µM: HCT-15

N#CC(NCCO)=C1C(=O)c2ccccc2C1=O
inactive: 786-0 > 100 µM | A498 > 100 µM | A549 > 100 µM | ACHN > 100 µM | BT-549 > 100 µM | CAKI-1 > 100 µM | COLO 205 > 100 µM | DU-145 > 100 µM | EKVX > 100 µM | HCT-116 > 100 µM | HL-60 > 100 µM | HOP-62 > 100 µM | HOP-92 > 100 µM | HT-29 > 100 µM | Hs-578T > 100 µM | IGROV-1 > 100 µM | K562 > 100 µM | KM12 > 100 µM | LOX IMVI > 100 µM | M14 > 100 µM | MCF7 > 100 µM | MDA-MB-231 > 100 µM | MDA-MB-435 > 100 µM | MDA-N > 100 µM | MOLT-4 > 100 µM | Malme-3M > 100 µM | NCI-H226 > 100 µM | NCI-H23 > 100 µM | NCI-H460 > 100 µM | NCI-H522 > 100 µM | NCI/ADR-RES > 100 µM | OVCAR-3 > 100 µM | OVCAR-4 > 100 µM | OVCAR-5 > 100 µM | OVCAR-8 > 100 µM | PC-3 > 100 µM | RPMI-8226 > 100 µM | RXF 393 > 100 µM | SF-268 > 100 µM | SF-295 > 100 µM | SF-539 > 100 µM | SK-MEL-28 > 100 µM | SK-MEL-2 > 100 µM | SK-MEL-5 > 100 µM | SK-OV-3 > 100 µM | SN12C > 100 µM | SNB-19 > 100 µM | SNB-75 > 100 µM | SR > 100 µM | SW-620 > 100 µM | T47D > 100 µM | TK-10 > 100 µM | U-251 > 100 µM | UACC-257 > 100 µM | UACC-62 > 100 µM | UO-31 > 100 µM
> 100 µM: HCT-15

COC(=O)C1OC(O[C@H]2CC[C@]3(C)[C@H]4CC=C5[C@@H]6CC(C)(C)CC[C@]6(C(=O)OC6OCC(O)C(O)C6OC6OC(C)C(OC7OCC(O)C(OC8OCC(O)C(O)C8O)C7O)C(OC7OCC(O)C(O)C7O)C6O)CC[C@@]5(C)[C@]4(C)CC[C@H]3C2(C)C)C(O)C(OC2OCC(O)C(O)C2O)C1O (stereo not given in full)
14.1 µM and 27.4 µM: HCT-15
inactive: 786-0 5.01 µM and 7.71 µM | A498 1.94 µM and 1.66 µM | A549 3.17 µM and 3.16 µM | ACHN 4.84 µM and 4.03 µM | BT-549 3.01 µM and 2.62 µM | CAKI-1 5.24 µM and 4.84 µM | CCRF-CEM 11.3 µM and 10.6 µM | COLO 205 1.6 µM and 1.52 µM | DU-145 5.79 µM and 9.29 µM | EKVX 3.74 µM and 3.72 µM | HCC 2998 1.78 µM and 1.67 µM | HCT-116 4.04 µM and 4.85 µM | HL-60 2.28 µM and 1.97 µM | HOP-92 2.19 µM and 2.25 µM | HT-29 3.1 µM and 2.9 µM | Hs-578T 16.1 µM and 19.7 µM | IGROV-1 7.41 µM and 9.25 µM | K562 4.94 µM and 3.94 µM | KM12 3.1 µM and 3.08 µM | LOX IMVI 7.85 µM and 5.43 µM | M14 1.95 µM and 2.25 µM | MCF7 4.71 µM and 3.27 µM | MDA-MB-231 2.73 µM and 3.51 µM | MDA-MB-435 2.13 µM and 2.14 µM | MDA-N 2.02 µM and 1.79 µM | MOLT-4 8.24 µM and 4.91 µM | Malme-3M 3.61 µM and 5.04 µM | NCI-H226 2.9 µM and 4.98 µM | NCI-H23 4.52 µM and 3.81 µM | NCI-H522 1.95 µM and 1.77 µM | NCI/ADR-RES 5.11 µM and 4.45 µM | OVCAR-3 9.25 µM and 7.82 µM | OVCAR-4 6.61 µM and 5.24 µM | OVCAR-5 5.31 µM and 4.75 µM | OVCAR-8 13.2 µM and 10.4 µM | PC-3 4.46 µM and 4.32 µM | RPMI-8226 2.62 µM and 4.37 µM | SF-268 6.53 µM and 8.45 µM | SF-295 5.19 µM and 3.39 µM | SK-MEL-28 2.37 µM and 2.07 µM | SK-MEL-2 2.22 µM and 2.93 µM | SK-MEL-5 3.8 µM and 2.52 µM | SK-OV-3 12.8 µM and 16.6 µM | SN12C 2.25 µM and 2.31 µM | SNB-19 7.01 µM and 6.22 µM | SR 1.75 µM and 2.72 µM | SW-620 9.2 µM and 8.04 µM | T47D 3.45 µM and 3.29 µM | TK-10 7.35 µM and 11.9 µM | U-251 7.41 µM and 6.87 µM | UACC-257 3.17 µM and 2.91 µM | UACC-62 3.08 µM and 3.77 µM | UO-31 2.01 µM and 1.9 µM

Cc1ccc2c(c1)C(=O)/C(=C\c1ccccc1)CCS2(=O)=O
4.84 µM: HCT-15
inactive: 786-0 11.2 µM | A498 19.7 µM | A549 12.9 µM | ACHN 11.4 µM | BT-549 6.68 µM | CAKI-1 17.2 µM | COLO 205 17.4 µM | DU-145 3.27 µM | EKVX 22.1 µM | HCC 2998 12.2 µM | HCT-116 6.43 µM | HOP-62 20.9 µM | HOP-92 12.9 µM | HT-29 9.06 µM | Hs-578T 15.8 µM | IGROV-1 9.68 µM | K562 2.32 µM | KM12 10.5 µM | LOX IMVI 10.7 µM | M14 19.8 µM | MCF7 6.21 µM | MDA-MB-231 12.7 µM | MDA-MB-435 10.8 µM | MDA-N 16.9 µM | MOLT-4 4.54 µM | Malme-3M 10.7 µM | NCI-H226 15.7 µM | NCI-H23 12.7 µM | NCI-H460 9.12 µM | NCI-H522 4.36 µM | NCI/ADR-RES 7.23 µM | OVCAR-3 13.1 µM | OVCAR-4 12 µM | OVCAR-5 19 µM | OVCAR-8 11.6 µM | PC-3 10.4 µM | SF-268 15.1 µM | SF-295 14.2 µM | SF-539 10.3 µM | SK-MEL-28 18.5 µM | SK-MEL-2 18.6 µM | SK-MEL-5 11.6 µM | SK-OV-3 15.9 µM | SN12C 14.2 µM | SNB-19 8.51 µM | SNB-75 20.6 µM | SR 2.92 µM | SW-620 15.5 µM | T47D 11.7 µM | TK-10 13.8 µM | U-251 4.69 µM | UACC-257 12.3 µM | UACC-62 11.9 µM | UO-31 10.8 µM
active: CCRF-CEM 1.07 µM | HL-60 0.303 µM
